The test system of assay [1] is Trypanosoma cruzi infection. The settings on record: cited from earlier work.
Another assay concerns Trypanosoma cruzi. The settings on record: added to Trypanosoma cruzi-infected mammalian cell cultures; cited from earlier work.
The target in another assay is T1, Human Cathepsin K (Homo sapiens, UniProt P43235).
T1 construct: Dr. Boris Turk (Josef Stefan Institute, Ljubljana, Slovenia), obtained from an academic laboratory, not a commercial vendor
T1 sequence (P43235 115-329): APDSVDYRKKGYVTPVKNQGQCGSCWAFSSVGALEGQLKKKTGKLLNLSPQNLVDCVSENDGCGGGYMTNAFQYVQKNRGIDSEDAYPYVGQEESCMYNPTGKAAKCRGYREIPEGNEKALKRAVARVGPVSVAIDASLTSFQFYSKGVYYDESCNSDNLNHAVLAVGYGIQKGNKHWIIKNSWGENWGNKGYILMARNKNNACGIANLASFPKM
Kind of assay: Cathepsin peptidase activity assay, human cathepsin K. In kind it is biochemical. As to conditions: pH 5.5; Z-Leu-Arg-AMC; 25±1° C. The protocol:
(§1) Assay protocols were based on literature precedent (Table1; Barrett, A. J., Rawlings, N. D. and Woessner, J. F., 1998, Handbook of Proteolytic Enzymes, Academic Press, London and references therein) and modified as required to suit local assay protocols. Enzyme was added as required to initiate the reaction and the activity, as judged by the change in fluorescence upon conversion of substrate to product, was monitored over time. All assays were carried out at 25±1° C.
(§2) Bovine cathepsin S, human cathepsin L, human cathepsin H and human cathepsin B were obtained from CN Biosciences. Recombinant human cathepsin S, human cathepsin K and human cathepsin X were obtained from Dr. Boris Turk (Josef Stefan Institute, Ljubljana, Slovenia). Unless otherwise stated, all peptidase activity assays were carried out in 10 mM bis-tris-propane (BTP), pH 6.5 containing 1 mM […], 5 mM 2-mercaptoethanol and 1 mM CaCl2. Human cathepsin H activity assays were carried out in 10 mM BTP pH 6.5, 142 mM […], 1 mM CaCl2, 1 mM EDTA, 1 mM DTT, 0.035 mM Zwittergent 3-16. […] The rate of conversion of substrate to product was derived from the slope of the increase in fluorescence monitored continuously over time.
(§3) The apparent inhibition constant (Ki) for each compound was determined on the basis that inhibition was reversible and occurred by a pure-competitive mechanism. The Ki values were calculated, from the dependence of enzyme activity as a function of inhibitor concentration, by direct regression analysis (Prism v 3.02) using Equation 2 (Cornish-Bowden, A., 1995.). […]
(§4) In situations where the apparent dissociation constant (Ki^app) approached the enzyme concentrations, the Ki^app values were calculated using a quadratic solution in the form described by Equation 3 (Morrison, J. F. Trends Biochem. Sci., 7, 102-105, 1982; Morrison, J. F. Biochim. Biophys. Acta, 185, 269-286, 1969; Stone, S. R. and Hofsteenge, J. Biochemistry, 25, 4622-4628, 1986). […]

The next assay concerns the target T2, Bovine Cathepsin S (Bos taurus, UniProt P25326).
T2 construct: purchased CN Biosciences
As to the kind of experiment: Cathepsin peptidase activity assay, bovine cathepsin S. In kind it is biochemical. The settings on record: pH 6.5; boc-Val-Leu-Lys-AMC; 25±1° C. The protocol: as §1, §2, §3, §4

For a further assay, the target named is T3, Cruzipain (Trypanosoma cruzi, UniProt P25779).
T3 construct: Wild-type cruzipain, derived from Trypanosoma cruzi Dm28 epimastigotes; tissue Dr. Julio Scharfstein (Instituto de Biofisica Carlos Chagas Filho, Universidade Federal do Rio de Janeiro); host or cells: Trypanosoma cruzi Dm28 epimastigotes
Kind of assay: Trypanosoma cruzi cruzipain peptidase activity assay. In kind it is biochemical. The settings on record: wild-type cruzipain from T. cruzi Dm28 epimastigotes; pH 6.75; 25±1° C. The procedure: as §1
Wild-type cruzipain, derived from Trypanosoma cruzi Dm28 epimastigotes, was obtained from Dr. Julio Scharfstein (Instituto de Biofisica Carlos Chagas Filho, Universidade Federal do Rio de Janeiro, Rio de Janeiro, Brazil). Activity assays were carried out in 100 mM sodium phosphate, pH 6.75 containing 1 mM EDTA and 10 mM L-cysteine using […] enzyme. Ac-Phe-Arg-AMC (KM^app≈12 μM) and D-Val-Leu-Lys-AMC (KM^app≈4 μM) were used as the substrates. Routinely, Ac-FR-AMC was used at a concentration equivalent to KM^app and D-Val-Leu-Lys-AMC was used at a concentration of 25 μM. The rate of conversion of substrate to product was derived from the slope of the increase in fluorescence monitored continuously over time.
The apparent inhibition constant (Ki) for each compound was determined on the basis that inhibition was reversible and occurred by a pure-competitive mechanism. The Ki values were calculated, from the dependence of enzyme activity as a function of inhibitor concentration, by direct regression analysis (Prism v 3.02) using Equation 2 (Cornish-Bowden, A., 1995.). [formula] […]
as §4

Another assay has as its target T4, Human Cathepsin L (Homo sapiens, UniProt P07711).
T4 construct: purchased CN Biosciences
Kind of assay: Cathepsin peptidase activity assay, human cathepsin L. In kind it is biochemical. The settings on record: pH 6.5; Ac-Phe-Arg-AMC; 25±1° C. The procedure: as §1, §2, §3, §4

T4 sequence (P07711 114-333): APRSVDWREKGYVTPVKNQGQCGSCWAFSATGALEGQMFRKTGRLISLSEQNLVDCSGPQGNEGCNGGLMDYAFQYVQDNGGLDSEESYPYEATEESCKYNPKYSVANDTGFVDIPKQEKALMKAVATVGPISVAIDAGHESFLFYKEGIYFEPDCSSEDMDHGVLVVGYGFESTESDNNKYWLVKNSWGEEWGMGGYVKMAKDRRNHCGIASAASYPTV
T3 sequence (P25779 123-467): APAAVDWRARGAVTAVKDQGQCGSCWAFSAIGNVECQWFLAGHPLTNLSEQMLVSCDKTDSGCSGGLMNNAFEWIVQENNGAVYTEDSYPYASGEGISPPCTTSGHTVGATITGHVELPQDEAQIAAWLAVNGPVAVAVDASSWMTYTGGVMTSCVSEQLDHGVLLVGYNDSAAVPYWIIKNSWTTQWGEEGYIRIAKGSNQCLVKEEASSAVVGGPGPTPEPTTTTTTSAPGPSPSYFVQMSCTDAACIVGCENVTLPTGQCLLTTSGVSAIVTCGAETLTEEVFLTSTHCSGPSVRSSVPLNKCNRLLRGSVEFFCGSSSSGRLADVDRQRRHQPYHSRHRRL
T2 sequence (P25326 115-331): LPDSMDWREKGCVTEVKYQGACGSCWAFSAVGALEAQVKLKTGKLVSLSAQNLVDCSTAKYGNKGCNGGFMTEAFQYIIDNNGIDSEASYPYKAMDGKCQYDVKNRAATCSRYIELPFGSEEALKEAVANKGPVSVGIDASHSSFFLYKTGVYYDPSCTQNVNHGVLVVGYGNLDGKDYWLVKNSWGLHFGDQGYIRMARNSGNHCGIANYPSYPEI

`O=C(Cn1ccnc1[N+](=O)[O-])NCc1ccccc1` [benznidazole]: in assay [1], the “cure during the acute phase of infection” value is recorded as about 60%.

Take `CC(NC(=O)C(Cc1ccccc1)NC(=O)OCc1ccccc1)C(=O)CF` (stereo not drawn) [Z-Phe-Ala-FMK]: the “effect on replication and differentiation of the parasite” value with Trypanosoma cruzi was “blocked replication and differentiation of the parasite”.

As for `O=C(N[C@@H](CC1CCCCC1)C(=O)N[C@]12CCC[C@H]1OCC2=O)c1ccsc1` [Example 7, (3aR, 6aR) Thiophene-3-carboxylic acid [2-cyclohexyl-1S-(3-oxo-hexahydrocyclopenta[b]furan-3a-ylcarbamoyl)ethyl]amide], the Ki (as a rule, a dissociation constant, usually derived from enzyme kinetics or from competition with a known ligand) at Human Cathepsin K was over 50 µM; at Bovine Cathepsin S, under 2 µM; on Cruzipain, over 50 µM; at Human Cathepsin L, over 25 µM.

`CC(C)(C)c1ccc(C(=O)N[C@@H](Cc2ccc(O)cc2)C(=O)N[C@]23CCC[C@H]2OCC3=O)cc1` [Example 1, (3aR, 6aR) 4-tert-Butyl-N-[2-(4-hydroxyphenyl)-1S-(3-oxo-hexahydrocyclopenta[b]furan-3a-ylcarbamoyl)-ethyl]benzamide]: the Ki on Human Cathepsin K is over 100 µM; on Bovine Cathepsin S, over 50 µM; at Cruzipain, under 2 µM; at Human Cathepsin L, over 20 µM.

With `CC(C)C[C@H](NC(=O)c1cc2ccccc2s1)C(=O)N[C@]12CCC[C@H]1OCC2=O` [Example 6, (3aR, 6aR) Benzo[b]thiophene-2-carboxylic acid [3-methyl-1S-(3-oxo-hexahydrocyclopenta[b]furan-3a-ylcarbamoyl)butyl]amide], the Ki on Human Cathepsin K is under 2 µM; on Bovine Cathepsin S it was over 25 µM; on Cruzipain, over 20 µM; on Human Cathepsin L it was over 10 µM.

Values taken from US6958358B2, “Inhibitors of cruzipain and other cysteine proteases” (Amura Therapeutics Limited, priority 2001, dated 2005).
